Measured values as given in patent US20260166141A1, “PHARMACEUTICAL COMPOSITION OF RIP2 INHIBITOR IN COMBINATION WITH IMMUNE CHECKPOINT INHIBITOR AND USE THEREOF” (NINGBO COMBIREG PHARMACEUTICAL TECHNOLOGY CO., LTD., priority 2022, published 2026).

What was measured:
Assay type in all cases: in vivo
colorectal cancer (MC38) [1] = experiment: colorectal cancer (MC38) tumor-bearing model in C57BL/6 mice, GSK583 combined with atezolizumab; conditions: for tumor growth (tumor volume progression): atezolizumab 150 μg/mouse i.p. Days 0, 4, 11, GSK583 1 mg/kg i.v. once every 4 days, 4 doses, compared to IgG control
Method: Test substances atezolizumab (Roche) and IgG control antibody (in VivoMAb human IgG1 isotype control; BioXCell, BE0297) were prepared in saline. GSK583 was formulated as a 20× stock solution in DMSO and diluted to the dosing concentration with saline containing 5% polyoxyl 35 castor oil (Cremophor EL) before use.
(§1) Experimental animals and tumor lines: SPF-grade male wild-type C57BL/6 mice (6 to 8 weeks old, 20 to 25 g) were purchased from the Laboratory Animal Resources Center, Tsinghua University. The cells used in the experiment were murine colorectal cancer cells (MC38), which were purchased from the Cell Bank of Peking Union Medical College.
According to the method shown in (A and B of FIG. 3), the mice were subcutaneously inoculated with MC38 cells at a concentration of 5×10^6 cells/mL and 0.1 mL/mouse. When the tumor grew to a volume within the range of 100 mm^3, the mice were randomly divided into 4 groups based on tumor volume, with 6 to 8 mice per group, and dosing was initiated. The dosing regimen was as follows: (i) blank control (IgG control, 150 μg/mouse) group; (ii) GSK583 (1 mg/kg) group; (iii) atezolizumab (150 μg/mouse) group; (iv) atezolizumab (150 μg/mouse)+GSK583 (1 mg/kg). GSK583 was administered via intravenous injection once every 4 days for a total of 4 doses; IgG control and atezolizumab were administered via intraperitoneal injection on Days 0, 4, and 11 for a total of 3 doses. The day of grouping and dosing was recorded as Day 0. During the dosing process, the animals were weighed every 2 to 3 days, and the long and short diameters of the tumor were measured with a vernier caliper. The tumor size was calculated by the formula: (½)×long diameter×(short diameter)^2. The experiment was terminated on Day 15. After the mice were euthanized and dissected, the tumor was removed and weighed, and the tumor inhibition rate was calculated.

colorectal cancer (MC38) [2] = experiment: colorectal cancer (MC38) tumor-bearing model in C57BL/6 mice, GSK583 combined with pembrolizumab; conditions: Day 20; pembrolizumab 150 μg/mouse i.p.; GSK583 1 mg/kg i.v. once every 4 days; compared to IgG control
Method: Test substances pembrolizumab (Merck & Co., Inc.) and IgG control antibody (in VivoMAb human IgG1 isotype control; BioXCell, BE0297) were prepared in saline. GSK583 was formulated as a 20× stock solution in DMSO and diluted to the dosing concentration with saline containing 5% polyoxyl 35 castor oil (Cremophor EL) before use.
as §1
According to the method shown in (A and B of FIG. 7), the mice were subcutaneously inoculated with MC38 cells at a concentration of 5×10^6 cells/mL and 0.1 mL/mouse. When the tumor grew to a volume within the range of 100 mm^3, the mice were randomly divided into 3 groups based on tumor volume, with 6 to 7 mice per group, and dosing was initiated. […] The day of grouping and dosing was recorded as Day 0. During the dosing process, the animals were weighed every 2 to 3 days, and the long and short diameters of the tumor were measured with a vernier caliper. The tumor size was calculated by the formula: (½)×long diameter×(short diameter)^2. […]

colorectal cancer (MC38) [3] = experiment: colorectal cancer (MC38) tumor-bearing model in WT and RIP2−/− C57BL/6 mice, atezolizumab; conditions: for tumor growth (tumor volume progression): 150 μg/mouse i.p. Days 0, 4, 11, 18; for tumor weight: compared to corresponding control group
Method: Test substances atezolizumab (Roche) and IgG control antibody (in VivoMAb human IgG1 isotype control; BioXCell, BE0297) were prepared in saline. Experimental animals and tumor lines: SPF-grade male wild-type (WT) C57BL/6 mice (20 to 25 g) and RIP2 knockout (RIP2^−/−) mice (6 to 8 weeks old, 20 to 25 g) were purchased from Shanghai Model Organisms Center, Inc. The mice were generated using CRISPR-Cas9 technology and bred at the Laboratory Animal Resources Center, Tsinghua University. The cells used in the experiment were murine colorectal cancer cells (MC38), which were purchased from the Cell Bank of Peking Union Medical College.
According to the method shown in (A and B of FIG. 1), the mice were subcutaneously inoculated with MC38 cells at a concentration of 5×10^6 cells/mL and 0.1 mL/mouse. When the tumor grew to a volume within the range of 100 mm^3, WT mice and RIP2^−/− mice were randomly divided into 2 groups based on tumor volume, with 6 to 8 mice per group, and dosing was initiated. The dosing regimen was as follows: (i) WT-blank control (WT-IgG control, 150 μg/mouse) group; (ii) WT-atezolizumab (150 μg/mouse) group; (iii) RIP2^−/−-blank control (RIP2^−/−-IgG control, 150 μg/mouse) group; (iv) RIP2^−/−-atezolizumab (150 μg/mouse) group. IgG control and atezolizumab were administered via intraperitoneal injection on Days 0, 4, 11, and 18 for a total of 4 doses. The day of grouping and dosing was recorded as Day 0. During the dosing process, the animals were weighed every 2 to 3 days, and the long and short diameters of the tumor were measured with a vernier caliper. The tumor size was calculated by the formula: (1/2)×long diameter×(short diameter)^2. The experiment was terminated on Day 20. After the mice were euthanized and dissected, the tumor was removed and weighed, and the tumor inhibition rate was calculated by the formula: [([…])/average tumor weight of the control group]×100%.

Row | Compound | tumor growth (tumor volume progression) (colorectal cancer (MC38) [1]) | tumor growth (tumor volume progression) (colorectal cancer (MC38) [2]) | tumor weight (colorectal cancer (MC38) [1]; end of dosing (Day 15), compared to control group) | inhibitory effect on tumor growth, RIP2−/− mice compared to WT mice (colorectal cancer (MC38) [3]; 150 μg/mouse i.p., tumor volume) | tumor growth (tumor volume progression) (colorectal cancer (MC38) [3]; RIP2−/− mice, compared to RIP2−/−-IgG control) | tumor weight (colorectal cancer (MC38) [3]; RIP2−/− mice, end of dosing (Day 20)) | tumor growth (tumor volume progression) (colorectal cancer (MC38) [3]; WT mice, compared to WT-IgG control) | tumor weight (colorectal cancer (MC38) [3]; WT mice, end of dosing (Day 20)) | anti-tumor effect (tumor weight, tumor weight inhibition rate), RIP2−/− mice compared to WT mice (colorectal cancer (MC38) [3]; end of dosing (Day 20))
1 | CC(C)(C)S(=O)(=O)c1ccc2nccc(Nc3n[nH]c4ccc(F)cc34)c2c1 [GSK583] | no significant inhibitory effect on tumor growth | – | – | – | – | – | – | – | –
2 | pembrolizumab: programmed death 1 (PD-1) inhibitor, pembrolizumab (Merck & Co., Inc.) | – | significantly inhibited tumor growth | – | – | – | – | – | – | –
3 | atezolizumab: programmed death-ligand 1 (PD-L1) inhibitor, atezolizumab (Roche) | significantly inhibited tumor growth | – | significantly lower than that in the control group | significantly improved | significantly inhibited tumor growth | significantly reduced tumor weight | significantly inhibited tumor growth | significantly reduced tumor weight | significantly stronger than that in WT mice
